In BindingDB's records for doi:10.1021/jm00114a015 (National Institute of Diabetes and Digestive and Kidney …, 1991) one finds Ki data, which are given here for five molecules.

Test [1] in a line: Compound was tested for the inhibitory activity against Sigma opioid receptor by using [3H](+)-3-PPP as radioligand in guinea pig brain.
Experiment in test [2]: as above
The source holds these as a separate data set.

Molecules are shown by their SMILES.

Usually Ki stands for the equilibrium dissociation constant of an inhibitor or competing ligand from its target. A high value points to a looser hold on the target. In test [1], `CCN(CCc1ccc(Cl)c(Cl)c1)[C@H]1CCCC[C@H]1N1CCCC1` displayed a Ki of 3.1 nM.

In the case of `CCCN(CCc1ccc(Cl)c(Cl)c1)[C@@H]1CCCC[C@@H]1N1CCCC1`, in test [1], the affinity corresponds to a Ki of 56 nM.

Take `CCCN(CCc1ccc(Cl)c(Cl)c1)[C@H]1CCCC[C@H]1N1CCCC1`: in test [1], the affinity corresponds to a Ki of 140 nM. This Ki is about 2.5-fold higher than that of the molecule before.

As for `CN(Cc1ccc(Cl)c(Cl)c1)[C@H]1CCCC[C@H]1N1CCCC1`, in test [2], the Ki worked out at 1.2 nM.

`CCN(CCc1ccc(Cl)c(Cl)c1)[C@@H]1CCCC[C@@H]1N1CCCC1` returned a Ki in test [2] of 3.5 nM.
